Experimental data from patent US20040014814A1, “Compositions and methods for delaying preventing rejuvenating or reversing senescence in cells” (priority 2000, published 2004).

Columns and labels:
non-enzymic glycation [1] = assay: Anti-glycation activity; assay type: biochemical
Anti-oxidant activity = assay type: biochemical; conditions: parent compound = carnosine
MRC-5 cells [2] = assay: Uptake of radio-labeled (3H) compounds by MRC-5 fibroblast cells; conditions: after 48 hours
Experimental: For MRC-5 cells, (3H)—carnosine and acetyl carnosine were added to the medium of near confluent 60mm culture dishes. At different time points cells were washed three times with phosphate buffered saline, cells harvested and cell-associated radioactivity determined using Packard Starscint scintillation fluid.
The rate of uptake of carnosine and acetyl-carnosine by MRC-5 cells was studied using radio-labeled tritiated (3H) carnosine and acetyl-carnosine compounds. The uptake was measured in MRC-5 cells at passage 28 over a 48 hour period (FIG. 3A).

human blood peptidases = assay: Stability in human blood serum / attack by human blood peptidases; assay type: in vitro ADME
MRC-5 cells [3] = assay: Effect of carnosine derivatives on cell growth / toxicity in MRC-5 cell cultures; assay type: cell-based, human; parameters: key to Effect on cell growth (score): (0) Toxic to cell growth; (10) Confluent cell growth; conditions: MRC-5 cells, scale 0 toxic to 10 confluent
Experimental: (§1) MRC -5 cells (fetal lung fibroblasts) were grown in Dulbecco's modification of Eagles' minimum essential medium (DMEM Gibco BRL Cat. No. 12800-017) containing 0.45% glucose, or MEM (Gibco BRL Cat. No. 612800-017) containing 0.1% glucose. Both media contained 10% fetal calf scrum (TRACE Biosciences Cat. No. 15-010-0500V) and Penicillin/Streptomycin 5000 IU, 5000 μg/ml (TRACE Biosciences Cat. No. 21-140-0100V). Cells were grown in […] flasks or in dishes (35 mm or 60 mm, Nunc) at 37° C. with 5% CO2. Cells were harvested with trypsin (TRACE Biosciences Cat. No. 21-163-0100V) and counted with a model ZF6 Coulter Counter. Cells were split in ratios of 1:2 or 1:4. Population doublings (PDs) were calculated from the ratio of the initial number of cells plated to the yield of cells after a period of time. This provides an accurate measure of cell growth, with the split ratios 1:2 and 1:4 corresponding to one and two passages respectively, which are broadly equivalent to population doublings. The media was changed every 5 days or when cells became confluent.
MRC-5 cells were used to observe the toxicity of a series of derivatives of carnosine on cell growth. Cell cultures were grown in DMEM media with 10% fetal calf serum and supplemented with the following carnosine analogues: carnosine ethyl ester, carnosine iso-propyl ester, carnosine n-butyl ester, carnosine n-hexyl ester, N-propyl carnosine, N-hexanoyl carnosine, N-trimethyl acetyl carnosine, N-acetyl carnosine methyl ester, N-acetyl carnosine ethyl ester and N-acetyl carnosine, […] Cells were also grown in DMEM supplemented with carnosine at 20 mM. […] Even at lower concentrations cell morphology was that of cells that have reached senescence i.e. broad flat cells with long process reaching out to other cells. Cell numbers were less than in the control flasks. […] As shown in FIG. 1 Acetyl-carnosine achieved a lifespan 5 PDs greater than the control and 6.7 PDs greater than carnosine over a 43 day period. […] In the early phase of the experiment growth rates were markedly greater than with the other compounds (FIG. 1).

non-enzymic glycation [4] = system: non-enzymic glycation; parameters: key: 0 = zero effect; 10 = maximum effect; conditions: summary grade; footnote (2) literature; cited from earlier work
MRC-5 cells [5] = assay: Lifespan (population doublings) of MRC-5 cells in culture; assay type: cell-based, human
Experimental: Cultures were split in a 1:4 ratio when flasks were approximately 70-80% confluent.
as §1
MRC-5 cells were used to observe the toxicity of a series of derivatives of carnosine on cell growth. Cell cultures were grown in DMEM media with 10% fetal calf serum and supplemented with the following carnosine analogues: carnosine ethyl ester, carnosine iso-propyl ester, carnosine n-butyl ester, carnosine n-hexyl ester, N-propyl carnosine, N-hexanoyl carnosine, N-trimethyl acetyl carnosine, N-acetyl carnosine methyl ester, N-acetyl carnosine ethyl ester and N-acetyl carnosine, at concentrations ranging between 1 mM to 20 mM. Cells were also grown in DMEM supplemented with carnosine at 20 mM. […] Even at lower concentrations cell morphology was that of cells that have reached senescence i.e. broad flat cells with long process reaching out to other cells. Cell numbers were less than in the control flasks. […] As shown in FIG. 1 Acetyl-carnosine achieved a lifespan 5 PDs greater than the control and 6.7 PDs greater than carnosine over a 43 day period. […] In the early phase of the experiment growth rates were markedly greater than with the other compounds (FIG. 1).
In fact all populations of MRC-5 cells grown in DMEM supplemented with acetyl-carnosine preserved a younger phenotype for much longer than cells grown in DMEM supplemented with carnosine or its analogues.
Under control conditions the range was 57.3-64.5 PDs (n=5). With the addition of carnosine (20mM) to the medium the range was 61.8-63.7 PDs (n=5) with an average increase of 1.4 PDs which represents a 3 fold increase in cell number. However, when acetyl-carnosine (5 mM) was added to the medium, the range was 62.3-70.3 PDs (n=5) with an average increase of 5 PDs compared with the controls. This represents a 32 fold increase in cell number.

senescent MRC-5 cells = assay: Rejuvenation of senescent MRC-5 cells (morphology); assay type: cell-based, human; conditions: media supplemented with the compound, FIG. 4
Experimental: as §1
It was shown above that acetyl-carnosine markedly delayed the onset of senescence by increasing the lifespan of MRC-5 cells in culture. This was confirmed by rejuvenation experiments (FIG. 4). The morphology of cells grown in media supplemented with acetyl-carnosine was distinct from the controls. […]

[6] = Fate of compound after cellular uptake; assay type: cell-based; conditions: compared with carnosine
Experimental: Experiments were conducted to determine the fate of acetyl-carnosine and carnosine after cellular uptake. […] A slower metabolism and incorporation into other proteins may be one reason for acetyl-carnosine having higher effective intracellular concentrations compared with carnosine despite its lower overall uptake.

SMILES: CC(=O)NCCC(=O)N[C@@H](Cc1cnc[nH]1)C(=O)O [N-acetyl carnosine]
- Effectiveness as an antiglycation agent (non-enzymic glycation [1]): ineffective
- Antioxidant effectiveness relative to the parent compound (Anti-oxidant activity): 60%
- Number of cells greater than with carnosine (MRC-5 cells [2]; MRC-5 cells): 42%
- Number of cells growing in supplemented media (MRC-5 cells [2]; MRC-5 cells): 3.4×10^6
- Uptake relative to carnosine on a per cell basis (MRC-5 cells [2]; MRC-5 cells): 35%
- Uptake of (3H) compound by MRC-5 cells (MRC-5 cells [2]; cells at passage 28): 0.16%
- Resistance to attack by human blood peptidases (human blood peptidases): almost completely resistant
- Stability in human blood serum (human blood peptidases; human blood serum): quite stable
- Effect on cell growth (score) (MRC-5 cells [3]; 0.5 mM): 7
- Effect on cell growth (score) (MRC-5 cells [3]; 1 mM): 8
- Effect on cell growth (score) (MRC-5 cells [3]; 2 mM): 9
- Effect on cell growth (score) (MRC-5 cells [3]; 5 mM): 10
- Effect on cell growth (score) (MRC-5 cells [3]; 10 mM): 9
- Effect on cell growth (score) (MRC-5 cells [3]; 20 mM): 8
- anti-glycation (2) (non-enzymic glycation [4]): 0
- Range of lifespans of populations of MRC-5 cells (MRC-5 cells [5]; 5 mM in medium, n=5): 62.3-70.3 PDs
- Lifespan greater than carnosine (MRC-5 cells [5]; 5 mM vs carnosine 20 mM, passage 55 cells, over a 43 day period): 6.7 PDs
- Lifespan of MRC-5 cells in culture, Population Doublings (PD) (MRC-5 cells [5]; 5 mM, commenced at passage 55): 15.2 PD
- Average increase in lifespan compared with controls (MRC-5 cells [5]; 5 mM, n=5): 5 PDs
- Lifespan greater than the control (MRC-5 cells [5]; 5 mM, passage 55 cells, over a 43 day period): 5 PDs
- Increase in cell number (MRC-5 cells [5]; 5 mM, worked out from the PD increase): 32 fold
- Lifespan of MRC-5 cells compared with carnosine (FIG. 2) (MRC-5 cells [5]; acetyl-carnosine 5 mM vs carnosine 20 mM, commenced at passage 32): markedly increased the lifespan
- Increase in cell mass (MRC-5 cells [5]; cells exposed to supplemented media): 32 fold
- Morphology of cells in rejuvenation experiment (senescent MRC-5 cells): phenotype typical of younger cells
- Residence time in the cell before degradation [6]: considerably longer residence time
